According to ChEMBL document CHEMBL3885861, “Open TG-GATES”:

Species: Rattus norvegicus
Test: Open TG-GATES - Regimen: Daily Repeat
Assay type: toxicity, organism-based, Sprague-Dawley
Design: regimen Daily Repeat, gender Male, age 6 weeks
Conditions: in vivo, po, 100 mg/kg, route gavage, dose level Low; for APTT / Bas / Eos / Fbg / Hb / Ht / Lym / MCH / MCHC / MCV / Mono / Neu / PT / Plat / RBC / Ret / WBC: tissue Blood; for KIDNEY_L / KIDNEY_R / KIDNEY_TOTAL: tissue Kidney; for LIVER: tissue Liver; for A/G / ALP / ALT / AST / BUN / CRE / Ca / Cl / DBIL / GLC / IP / K / LDH / Na / PL / RALB / TBIL / TC / TG / TP / gamma-GTP: tissue Plasma

COc1ccc(Cl)cc1C(=O)NCCc1ccc(S(=O)(=O)NC(=O)NC2CCCCC2)cc1 [GLYBURIDE]
TERMINAL_BW (72 h, time 3 day): 227.4 g | APTT (72 h, time 3 day): 20.1 s | Bas (72 h, time 3 day): 0% | Eos (72 h, time 3 day): 1% | Fbg (72 h, time 3 day): 222.4 mg/dL | Hb (72 h, time 3 day): 13.6 g/dL | Ht (72 h, time 3 day): 40.3% | Lym (72 h, time 3 day): 83% | MCH (72 h, time 3 day): 21.4 pg | MCHC (72 h, time 3 day): 33.6% | MCV (72 h, time 3 day): 63.7 fL | Mono (72 h, time 3 day): 2.6% | Neu (72 h, time 3 day): 12.8% | PT (72 h, time 3 day): 12.2 s | Plat (72 h, time 3 day): 115.5 x10_4/uL | RBC (72 h, time 3 day): 632.6 x10_4/ul | Ret (72 h, time 3 day): 5.2% | WBC (72 h, time 3 day): 104.4 x10_2/uL | KIDNEY_L (72 h, time 3 day): 1 g | KIDNEY_R (72 h, time 3 day): 1 g | KIDNEY_TOTAL (72 h, time 3 day): 1.9 g | LIVER (72 h, time 3 day): 10.6 g | A/G (72 h, time 3 day): 1.7 | ALP (72 h, time 3 day): 952 IU/L | ALT (72 h, time 3 day): 42 IU/L | AST (72 h, time 3 day): 65.4 IU/L | BUN (72 h, time 3 day): 15 mg/dL | CRE (72 h, time 3 day): 0.4 mg/dL | Ca (72 h, time 3 day): 10.9 mg/dL | Cl (72 h, time 3 day): 103 meq/L | DBIL (72 h, time 3 day): 0.1 mg/dL | GLC (72 h, time 3 day): 187.8 mg/dL | IP (72 h, time 3 day): 6.9 mg/dL | K (72 h, time 3 day): 3.8 meq/L | LDH (72 h, time 3 day): 183.6 IU/L | Na (72 h, time 3 day): 141.6 meq/L | PL (72 h, time 3 day): 153.8 mg/dL | RALB (72 h, time 3 day): 3.5 g/dL | TBIL (72 h, time 3 day): 0.1 mg/dL | TC (72 h, time 3 day): 75.4 mg/dL | TG (72 h, time 3 day): 113 mg/dL | TP (72 h, time 3 day): 5.6 g/dL | gamma-GTP (72 h, time 3 day): 1.4 IU/L | TERMINAL_BW ([…], time 7 day): 265.1 g | TERMINAL_BW ([…], time 14 day): 301.6 g | TERMINAL_BW ([…], time 28 day): 376.3 g | APTT ([…], time 7 day): 19.7 s | Bas ([…], time 7 day): 0.2% | Eos ([…], time 7 day): 0.8% | Fbg ([…], time 7 day): 223 mg/dL | Hb ([…], time 7 day): 13 g/dL | Ht ([…], time 7 day): 38.5% | Lym ([…], time 7 day): 79.4% | MCH ([…], time 7 day): 21 pg | MCHC ([…], time 7 day): 33.7% | MCV ([…], time 7 day): 62.3 fL | Mono ([…], time 7 day): 3% | Neu ([…], time 7 day): 16.4% | PT ([…], time 7 day): 12.5 s | Plat ([…], time 7 day): 124.6 x10_4/uL | RBC ([…], time 7 day): 618 x10_4/ul | Ret ([…], time 7 day): 5.6% | WBC ([…], time 7 day): 123.7 x10_2/uL | APTT ([…], time 14 day): 19.3 s | Bas ([…], time 14 day): 0% | Eos ([…], time 14 day): 1% | Fbg ([…], time 14 day): 224.6 mg/dL | Hb ([…], time 14 day): 14.3 g/dL | Ht ([…], time 14 day): 40.2% | Lym ([…], time 14 day): 78% | MCH ([…], time 14 day): 21 pg | MCHC ([…], time 14 day): 35.6% | MCV ([…], time 14 day): 59.2 fL | Mono ([…], time 14 day): 2.2% | Neu ([…], time 14 day): 17.8% | PT ([…], time 14 day): 12.3 s | Plat ([…], time 14 day): 122 x10_4/uL | RBC ([…], time 14 day): 679.6 x10_4/ul | Ret ([…], time 14 day): 3.9% | WBC ([…], time 14 day): 137.4 x10_2/uL | APTT ([…], time 28 day): 23 s | Bas ([…], time 28 day): 0% | Eos ([…], time 28 day): 0.8% | Fbg ([…], time 28 day): 207.8 mg/dL | Hb ([…], time 28 day): 15.2 g/dL | Ht ([…], time 28 day): 43.5% | Lym ([…], time 28 day): 82.6% | MCH ([…], time 28 day): 19.3 pg | MCHC ([…], time 28 day): 34.9% | MCV ([…], time 28 day): 55.4 fL | Mono ([…], time 28 day): 2.4% | Neu ([…], time 28 day): 13.4% | PT ([…], time 28 day): 12.7 s | Plat ([…], time 28 day): 105.5 x10_4/uL | RBC ([…], time 28 day): 786.4 x10_4/ul | Ret ([…], time 28 day): 2.6% | WBC ([…], time 28 day): 115.6 x10_2/uL | KIDNEY_L ([…], time 7 day): 1.1 g | KIDNEY_R ([…], time 7 day): 1.1 g | KIDNEY_TOTAL ([…], time 7 day): 2.2 g | KIDNEY_L ([…], time 14 day): 1.1 g | KIDNEY_R ([…], time 14 day): 1.2 g | KIDNEY_TOTAL ([…], time 14 day): 2.3 g | KIDNEY_L ([…], time 28 day): 1.3 g | KIDNEY_R ([…], time 28 day): 1.3 g | KIDNEY_TOTAL ([…], time 28 day): 2.6 g | LIVER ([…], time 7 day): 12.7 g | LIVER ([…], time 14 day): 13 g | LIVER ([…], time 28 day): 15.8 g | A/G ([…], time 7 day): 1.5 | ALP ([…], time 7 day): 816.2 IU/L | ALT ([…], time 7 day): 35.2 IU/L | AST ([…], time 7 day): 60.2 IU/L | BUN ([…], time 7 day): 15.8 mg/dL | CRE ([…], time 7 day): 0.4 mg/dL | Ca ([…], time 7 day): 11 mg/dL | Cl ([…], time 7 day): 102.4 meq/L | DBIL ([…], time 7 day): 0.1 mg/dL | GLC ([…], time 7 day): 196 mg/dL | IP ([…], time 7 day): 7.3 mg/dL | K ([…], time 7 day): 4.1 meq/L | LDH ([…], time 7 day): 155.2 IU/L | Na ([…], time 7 day): 140.6 meq/L | PL ([…], time 7 day): 151.8 mg/dL | RALB ([…], time 7 day): 3.4 g/dL | TBIL ([…], time 7 day): 0.2 mg/dL | TC ([…], time 7 day): 78.4 mg/dL | TG ([…], time 7 day): 116.4 mg/dL | TP ([…], time 7 day): 5.7 g/dL | gamma-GTP ([…], time 7 day): 1.2 IU/L | A/G ([…], time 14 day): 1.4 | ALP ([…], time 14 day): 1042 IU/L | ALT ([…], time 14 day): 37 IU/L | AST ([…], time 14 day): 63.6 IU/L | BUN ([…], time 14 day): 15.2 mg/dL | CRE ([…], time 14 day): 0.5 mg/dL | Ca ([…], time 14 day): 10.7 mg/dL | Cl ([…], time 14 day): 102.2 meq/L | DBIL ([…], time 14 day): 0.1 mg/dL | GLC ([…], time 14 day): 193.2 mg/dL | IP ([…], time 14 day): 6.4 mg/dL | K ([…], time 14 day): 3.9 meq/L | LDH ([…], time 14 day): 138.2 IU/L | Na ([…], time 14 day): 140.2 meq/L | PL ([…], time 14 day): 166.4 mg/dL | RALB ([…], time 14 day): 3.5 g/dL | TBIL ([…], time 14 day): 0.2 mg/dL | TC ([…], time 14 day): 81.2 mg/dL | TG ([…], time 14 day): 116.8 mg/dL | TP ([…], time 14 day): 6 g/dL | gamma-GTP ([…], time 14 day): 0.6 IU/L | A/G ([…], time 28 day): 1.4 | ALP ([…], time 28 day): 594 IU/L | ALT ([…], time 28 day): 33.6 IU/L | AST ([…], time 28 day): 58.4 IU/L | BUN ([…], time 28 day): 14.6 mg/dL | CRE ([…], time 28 day): 0.5 mg/dL | Ca ([…], time 28 day): 10.4 mg/dL | Cl ([…], time 28 day): 103.6 meq/L | DBIL ([…], time 28 day): 0.09 mg/dL | GLC ([…], time 28 day): 213.6 mg/dL | IP ([…], time 28 day): 6.4 mg/dL | K ([…], time 28 day): 3.9 meq/L | LDH ([…], time 28 day): 147 IU/L | Na ([…], time 28 day): 141 meq/L | PL ([…], time 28 day): 137.4 mg/dL | RALB ([…], time 28 day): 3.4 g/dL | TBIL ([…], time 28 day): 0.2 mg/dL | TC ([…], time 28 day): 69 mg/dL | TG ([…], time 28 day): 98.8 mg/dL | TP ([…], time 28 day): 5.8 g/dL | gamma-GTP ([…], time 28 day): 1.4 IU/L
